Source: US20210393549A1, “New use of R-enantiomer of adrenergic beta 2 receptor agonists for treatment of inflammatory bowel disease and its extra intestinal manifestations” (priority 2018, published 2021)
Where two headings read alike, the source gives them in different places.

How the values were obtained:
[1] = test system: DSS induced acute colitis; settings: for colon histology (H&E), in words: Example 1, compared with untreated DSS mice; for Hist score (histological score): epithelium 0-4 plus infiltration 0-4; for Hist score (histological score) / Col Length (colon length): tenth day; for Hist score (histological score) / FOB (fecal occult blood) / Weight / DAI (disease active index) / Col Length (colon length): 1 mg/kg (R-B, S-B 10 mg/kg; RS-C 2 mg/kg); for Hist score (histological score) / FOB (fecal occult blood) / Weight / Col Length (colon length): mean ± SD; for FOB (fecal occult blood): grade 0, 2, 4; for FOB (fecal occult blood) / Weight / Col Length (colon length): i.g. daily 8 days; for DAI (disease active index): score 0 to 12, i.g. daily 8 days from 2nd day of DSS, n=5
Source text: In one embodiment, IBD was induced in mice by add DSS into drink water for 7 days. […] (Cooper, S. et al., Clinic pathologic study of dextran sulfate sodium experimental murine colitis, Laboratory Investigation, vol. 69, no. 2, p. 238-249, 1993)
The mice were scarified at day 10th for anatomy and histology evaluations. […] Each of the above histological features was scored individually and added together which is then collectively expressed as “histological score”, for quantitative evaluation (Cooper, S. et al., above).
Male C57BL mice (8-10 weeks, 18-20 g) were grouped into control (drinking water only), DSS and DSS plus treatment groups (n=5). Acute colitis was induced by feeding mice with 2% (w/v) dextran sulfate sodium (DSS) (molecular mass 36-50 kDa) added to the drinking water given ad libitum for 7 days. At the end of seventh day, DSS was removed and animals received only drinking water for 2 days. The animals were euthanized for anatomical and histological examination at the tenth day after DSS ingestion.
R-salbutamol (R-S) (1 mg/kg, S-salbutamol (S-S) (1 mg/kg), R-terbutaline (R-T) (1 mg/kg), S-terbutaline (S-T) (1 mg/kg), R-bambuterol (10 mg/kg), S-bambuterol (S-B) (10 mg/kg), R-clenbuterol (R-C) (1 mg/kg), RS-clenbuterol (RS-C) (2 mg/kg) were administered i.g. daily, starting from the 2nd day of DSS induction for consecutive 8 days. Dexamethasone (Dex), 1 mg/kg) was used as a reference drug.
Evaluation of disease symptoms and histological changes Disease activity index (DAI): Animals were monitored daily for weight, water/food consumption, morbidity, stool consistency and fecal blood. […] The colon length was recorded as an indicator of inflammation. The entire colon was cut open longitudinally and gently flushed with sterile phosphate-buffered saline (PBS) to remove any traces of feces for pathology preparation. Colon segments were fixed in 10% neutral buffered formalin. Tissues were embedded in paraffin, sectioned, mounted on slides. H&E-stained paraffin section images were acquired. Pathological evaluation was conducted in a blinded manner.
Histological Score: the scores were given as follows: epithelium, 0=normal morphology, 1=loss of goblet cells, 2=loss of goblet cells in large areas, 3=loss of crypts, and 4=loss of crypts in large areas; and inflammation cells infiltration, 0=no infiltrate, 1=infiltrate around the crypt basis, 2=infiltrate reaching the muscularis mucosae, 3=extensive infiltration reaching the muscularis mucosae and thickening of the mucosa with abundant edema, and 4=infiltration of the submucosa. Data were presented as mean±the standard deviation (SD).

[2] = test system: knee joints (articular cartilage, meniscus); assay: Damage of knee joints in DSS induced IBD mice; format: in vivo; settings: compared with untreated DSS mice
Source text: In one embodiment, in DSS induced IBD mice, there was also a damage of knee joints. The articular cartilage structure became thinner and partially destroyed. The chondrocytes were degenerated, decreased and clustered. The meniscuses were damaged and lost its structural integrity. In X-ray, the layer of articular cartilage was thinner and bone structure was decreased. […] The articular cartilage and bone structure increased toward normal.

[3] = test system: DSS induced sub-acute colitis; format: in vivo; set-up: DAI (disease active index) / FOB (fecal occult blood) / Hist score (histological score): scale not given here; Weight / Col Length (colon length): unit not given here; settings: for Col Length (colon length) / DAI (disease active index) / FOB (fecal occult blood) / Hist score (histological score) / Weight: one week treatment, evaluation at 23rd day, R-S, S-S 1 mg/kg, R-B, S-B 10 mg/kg; for length of colon-rectors, in words: sub-acute DSS colitis; for length of colon-rectors, in words / DAI, in words / histological index / histological score, in words / fecal occult blood, in words: compared with untreated DSS mice; for body weights, in words / DAI, in words / histological index / histological score, in words / fecal occult blood, in words: sub-acute or chronic DSS colitis; for fecal occult blood, in words: day 14th and 22nd
Source text: This invention also disclosed the used of R-salbutamol for treatment of sub acute or chronic phases of IBD. In one embodiment, IBD was induced by DSS as mentioned above, along with the treatment of R-salbutamol, at day 7th, DSS was removed and replaced with drinking water for additional 2 weeks. The disease active index (DAI) of mice was examined and evaluated periodically. The mice were scarified for pathological and histological evaluations at day of 23rd. In DSS induce IBD mice, there were significant loss of weight and fecal occult blood at day 14th and 22nd. The overall condition of colitis was severe although there was slightly improvement comparing the day 7th. The colon-rector length was significant shortened, and histological score were significant higher from control. In mice with DSS induced colitis, there were significant mononuclear leucocytes infiltration, few newly grew crypts with architectural disarray, denegation of epithelia, mucosa aberrant. There was also deep mucosal lymphocytosis, destruction of lamina propria and sometimes, transmural inflammation.
Same as example 1, except • 1), Three weeks' study with one week treatment.
DSS and all the treatment was removed and replaced with drinking water at the end of 1st week. Mice were given drink water and food ad libitum for additional 2 weeks.

[4] = test system: IMQ-induced Psoriasis-Like Skin lesions; assay: IMQ-induced psoriasis-like skin lesions; format: in vivo, mice; settings: dorsal skin, IMQ-induced psoriasis mice
Method: Mice were divided into control, psoriasis and psoriasis plus treatment groups, (n=8 in each group). Psoriasis were induced by topical application of imiquimod cream (62.5 mg) on shaved dorsal skin for seven consecutive days. Vaseline was used in control group. There were four treatment groups: three doses of R-salbutamol (R-Sal) (0.5 mg, 1 mg, 2 mg/kg) and Dexamethasone (1 mg/kg) as positive control. All the treatments and same volume of saline (in control group) were administered orally. In some experiment, R-bambuterol (long-last beta2 agonist) was used as an additional treatment group (n=3). Psoriasis Area Severity Index were used for evaluation. Each of the scores for erythema, scaling and skin thickness were measured separately and then group together as a calculative score. (FIG. 2)

[5] = test system: DSS induced sub-acute colitis; assay: Prolonged (two weeks) treatment in DSS induced sub-acute colitis; format: in vivo, mice; settings: evaluation at 23rd day, salbutamol 1 mg/kg, bambuterol 10 mg/kg
Source text: Same as example 2, except. 1), Two Weeks Treatment within a Three Weeks of Study
DSS was removed from drinking water at the end of 1st week. The treatments were started at 1st day for consecutive 14 days (2 weeks). Only drinking water given for the 3rd week. The evaluation and examination were made at 23rd day as did in example 1.

[6] = test system: TNBS-induced colitis; assay: TNBS-induced colitis (model for Crohn's disease); format: in vivo, Male mice; settings: TNBS treated mice
Source text: Male mice colitis was induced by rectal co-administration of ethanol and TNBS (Trinitrobenzenesulfonic acid). Severe colitis in mice that was characterized by weight loss and diarrhea. Histologically there were loss of normal structures, visible discrete epithelioid granuloma, multiple erosive lesions, massive transmural inflammation infiltration of lymphocytes, and the loss of goblet cells. […] There was significant alleviation of lesions, few inflammatory infiltration with growing crypts and recovery mucosa epithelia along the column. […] In addition, in TNBS treated colitis mice, there were perianal symptoms: erythema, abscesses and ulcers found in some mice, which may lead to perianal fissures or fistulas. […] The therapeutically effects of R-salbuterol, R-clenbuterol and R-bambuterol on the symptoms in TNBS induced Crohn's disease has never been reported in prior art.

[7] = test system: DNCB induced allergic contact dermatitis; assay: DNCB induced allergic contact dermatitis model (eczema); format: in vivo, mice; settings: oral 8 days, indomethacin 5 mg/kg
Method: Mice was shaved at abdominal area DNCB (100 μL 0.5%) is dissolved and applied to the shaved skin to induce Atopica dermatitis for 2 consecutive days. At day 8th, DNCB was applied to both inner and outer surfaces of ears to induce eczema. Treatment of R-salbutamol and indomethacin were given orally at day 1st for consecutive 8 days. The mice were scarified at day 9th for examination and evaluation. Mice were divided into four groups (n=8), namely A, Control; B. Eczema (DNCB); C. Eczema plus R-Salbutamol of 0.05, 0.1 or 0.2 mg/kg; D. Eczema plus indomethacin of 5 mg/kg. The inflammation scores were evaluated according to swelling, erythema, scratch and thickness of both ears. [table]

[8] = acute DSS colitis, compared with untreated DSS mice
[9] = R-Salbutamol 0.05, 0.1 or 0.2 mg/kg

## CC(C)(C)NC[C@@H](O)c1ccc(O)c(CO)c1 [S-S, S-salbutamol]
[1]
  colon histology (H&E), in words: no signs of improvements
  Hist score (histological score): 7.9 ± 0.5
  FOB (fecal occult blood): 4.5 ± 0.5
  Weight: 80 ± 2.3
  DAI (disease active index): 13
  Col Length (colon length): 6.0 ± 0.9
[1]; S-enantiomers in DSS mice
  toxic effects on the bowel: toxic to the bowel
[1]; acute DSS colitis
  effects in prevent and treatment of DSS induced IBD, in words: no amelioration or therapeutic effects at all
[1]; [8]
  DAI, in words: significantly exacerbated
  FOB, in words: significantly worsened
  histological score, in words: significantly higher than untreated DSS mice
  length of colon-rector / shortening of large bowel, in words: further shortened
[2]
  damage of articular cartilage, meniscus and bone structure of knee joints: exacerbated
[3]
  Col Length (colon length): 6.5 ± 0.9
  DAI (disease active index): 13
  FOB (fecal occult blood): 4.5 ± 0.3
  Hist score (histological score): 7.7 ± 0.5
  Weight: 95 ± 0.8
  length of colon-rectors, in words: shorter
  body weights, in words: lower
  DAI, in words: much worse
  histological index / histological score, in words: markedly higher than untreated DSS mice
  fecal occult blood, in words: more severe
[4]
  histology of psoriasis skin lesions (HE): worsened the psoriasis histology
[5]
  DAI, in words: markedly higher than untreated DSS group
  histological score, in words: markedly higher than untreated DSS group

## infliximab
[6]
  submucosa fibrosis and narrowing of intestinal lumen: enhanced the submucosa fibrosis and lumen narrowing
[6]; listed as IFX
  submucosa fibrosis and narrowing of intestinal lumen: significant submucosa fibrosis and narrowing in lumen

## CN(C)C(=O)Oc1cc(OC(=O)N(C)C)cc([C@H](O)CNC(C)(C)C)c1 [S-B, S-bambuterol]
[1]
  colon histology (H&E), in words: no signs of improvements
  Hist score (histological score): 7.5 ± 1^
  FOB (fecal occult blood): 2.5 ± 0.5
  Weight: 81 ± 3.2
  DAI (disease active index): 12
  Col Length (colon length): 6 ± 0.6
[2]
  damage of articular cartilage, meniscus and bone structure of knee joints: exacerbated
[3]
  Col Length (colon length): 6.8 ± 0.1
  DAI (disease active index): 12
  FOB (fecal occult blood): 3.9 ± 0.1
  Hist score (histological score): 6.9 ± 1^
  Weight: 96 ± 1.1
  length of colon-rectors, in words: shorter
  body weights, in words: lower
  histological index / histological score, in words: markedly higher than untreated DSS mice
  fecal occult blood, in words: more severe
[5]
  DAI, in words: markedly higher than untreated DSS group
  histological score, in words: markedly higher than untreated DSS group

## CC(C)(C)NCC(O)c1cc(Cl)c(N)c(Cl)c1 (centres unmarked) [RS-C, RS-clenbuterol]
[1]; [8]
  DAI, in words: much less improvement than DSS mice treated with R-clenbuterol
  histological score, in words: better than DSS untreated but worse than R-enantiomer treated mice
[1]
  Hist score (histological score): 6 ± 0.5
  FOB (fecal occult blood): 4 ± 0.1
  Weight: 87 ± 2
  DAI (disease active index): 10
  Col Length (colon length): 6.5 ± 0.2^

## COc1ccc2c(c1)c(CC(=O)O)c(C)n2C(=O)c1ccc(Cl)cc1 [indomethacin, reference compound]
[7]; [9]
  erythema score of both ears: lesser effects
  thickness score of both ears: lesser effects
[7]; dose-dependent response
  eczema histology and inflammatory infiltration: little effects on eczema

## CC(C)(C)NC[C@@H](O)c1cc(O)cc(O)c1 [S-T, S-terbutaline]
[1]
  colon histology (H&E), in words: no signs of improvements
  Hist score (histological score): 7 ± 1
  FOB (fecal occult blood): 4 ± 0.5
  Weight: 80 ± 2.9
  DAI (disease active index): 12
  Col Length (colon length): 5.9 ± 0.5
[3]
  DAI, in words: much worse than untreated DSS mice
  histological index / histological score, in words: much worse than untreated DSS mice

## CC(C)(C)NC[C@@H](O)c1cc(Cl)c(N)c(Cl)c1 [S-clenbuterol]
[3]
  DAI, in words: much worse than untreated DSS mice
  histological index / histological score, in words: much worse than untreated DSS mice

## C[C@@H]1C[C@H]2[C@@H]3CCC4=CC(=O)C=C[C@]4(C)[C@@]3(F)[C@@H](O)C[C@]2(C)[C@@]1(O)C(=O)CO [DEX, Dexamethasone]
[1]
  Hist score (histological score): 6 ± 0.5
  FOB (fecal occult blood): 2.5 ± 0.5
  Weight: 88 ± 2.4
  DAI (disease active index): 7
  Col Length (colon length): 7.1 ± 0.2
